{"source": "paper PMC9385959", "about": "“Mammalian derived lipocalin and secretoglobin respiratory allergens strongly bind ligands with potentially immune modulating properties” (Frontiers in Allergy, 2022)", "key": {"Ory c 2": {"tested_on": "Ory c 2", "assay": "Competitive fluorescence-quenching assay, Ory c 2", "assay_type": "binding, rabbit", "settings": "5 μM Ory c 2-1-AMA complex, 50 μM ligand, n = 2", "procedure": "(§1) Fluorescence quenching assays were performed as previously described ([45]), with modifications. Fluorochromes and ligands were purchased from Sigma Aldrich (Steinheim, Germany), Carl Roth (Karlsruhe, Germany) and TCI Europe N.V. (Zwijndrecht, Belgium).\n(§2) Stock solutions were prepared at a concentration of 10 mM in 100% ethanol for the fluorochromes 1-aminoanthracene (1-AMA), 8-anilino-1-naphthalensulfonic acid (1,8-ANS) and for all ligands, and in 100% methanol for n-phenyl-1-naphthylamine (1-NPN), respectively. Iron catecholate ligands (siderophores) were prepared as previously described ([46]). Fluorochrome-protein complexes were analyzed at an equimolar concentration of 5 μM in PBS with 5% ethanol in a volume of 100 μL per well in black 96-well non-binding microplates (Greiner Bio-One GmbH, Frickenhausen, Germany). Solutions containing only protein or the respective fluorescent probe in PBS with 5% ethanol served as controls. Fluorochrome-protein complexes were incubated with orbital shaking for 10 min at 500 rpm at room temperature (RT) before measurement using the fluorescence reader TECAN Infinite 200 Pro (Tecan Trading AG, Switzerland). Excitation wavelengths were fixed at 380 nm for 1-AMA and 1,8-ANS, and 337 nm for 1-NPN. Fluorescence emission spectra were recorded in 5 nm steps between 420 and 560 nm for 1-AMA and 1,8-ANS and between 380 and 500 nm for 1-NPN. The establishment of fluorescent quenching assay parameters for each allergen is explained in the results Section Fluorescence-quenching assay set up. Binding affinities were analyzed by non-linear regression in GraphPad Prism Version 9.3.1 (GraphPad Software, LLC). For the ligand competition assays, ligands were added to fluorochrome-allergen complexes with a final buffer composition of 5% ethanol in PBS in a volume of 100 μL and incubated for 30 min at 500 rpm at RT and further equilibrated for another 30 min without shaking before fluorescence measurement.\n(§3) The binding affinities of non-fluorescent ligands is inferred to by their ability to compete and displace the fluorochromes bound to the allergen at a certain concentration. This leads to a measurable decrease in fluorescence intensity that will be expressed as fluorescence inhibition (Figure 6). For a given allergen, the ligand with the strongest inhibition has the highest binding affinity. […] Competitive ligand binding was analyzed by non-linear regression and inhibitory dissociation constants (Ki) were calculated."}, "Cav p 1.0201": {"biological_target": "Cav p 1.0201 (Cavia porcellus, UniProt A0A484HRI4)", "assay": "Competitive fluorescence-quenching assay, Cav p 1.0201", "assay_type": "binding, guinea pig", "settings": "5 μM Cav p 1.0201-1-AMA complex, 50 μM ligand, n = 2", "procedure": "as §1, §2, §3"}, "Cav p 1.0101": {"biological_target": "Cav p 1.0101 (Cavia porcellus, UniProt A0A484HM70, S19A)", "assay": "Competitive fluorescence-quenching assay, Cav p 1.0101", "assay_type": "binding, guinea pig", "settings": "5 μM Cav p 1.0101-1-AMA complex, 50 μM ligand, n = 2", "procedure": "as §1, §2, §3"}, "Can f 6": {"biological_target": "T1, Can f 6 (Canis lupus familiaris, UniProt H2B3G5)", "T1 construct": "polyhistidine tag (C); made in house; host or cells: E. coli Rosetta-gami 2", "T1 sequence (H2B3G5 16-190)": "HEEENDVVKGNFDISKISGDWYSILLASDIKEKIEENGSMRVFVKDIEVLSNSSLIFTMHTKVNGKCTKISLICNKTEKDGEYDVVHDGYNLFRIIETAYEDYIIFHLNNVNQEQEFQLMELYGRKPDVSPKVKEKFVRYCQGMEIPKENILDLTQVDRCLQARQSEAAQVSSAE", "assay": "Competitive fluorescence-quenching assay, Can f 6", "assay_type": "binding, dog", "settings": "for Ki: 5 μM Can f 6, fluorochrome 1-NPN, to be interpreted with caution, imprecise Ki values, read-out: Ligand inhibition constant Ki; for inhibition at 100 µM: read-out: Mean fluorescence inhibition", "procedure": "as §1, §2, §3"}, "Fel d 4": {"biological_target": "T2, Fel d 4 (Felis catus, UniProt Q5VFH6)", "T2 construct": "polyhistidine tag (C); made in house; host or cells: E. coli Rosetta-gami 2", "T2 sequence (Q5VFH6 16-186)": "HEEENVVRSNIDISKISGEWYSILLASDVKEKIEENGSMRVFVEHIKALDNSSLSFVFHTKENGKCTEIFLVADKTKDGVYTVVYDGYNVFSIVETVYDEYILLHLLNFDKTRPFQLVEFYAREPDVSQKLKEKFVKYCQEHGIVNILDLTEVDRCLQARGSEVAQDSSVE", "assay": "Competitive fluorescence-quenching assay, Fel d 4", "assay_type": "binding, cat", "settings": "for inhibition at 100 µM: read-out: Mean fluorescence inhibition", "procedure": "as §1, §2, §3"}, "Ory c 3": {"biological_target": "Ory c 3 (Oryctolagus cuniculus, UniProt Q9GK63+Q9GK67)", "assay": "Competitive fluorescence-quenching assay, Ory c 3", "assay_type": "binding, rabbit", "settings": "5 μM Ory c 3-1-AMA complex, 50 μM ligand, n = 2", "procedure": "as §1, §2, §3"}, "Fel d 1": {"biological_target": "T3, Fel d 1 (Felis catus, UniProt P30438+P30440)", "T3 construct": "polyhistidine tag (C); made in house; host or cells: E. coli Rosetta-gami 2", "T3 sequence (P30438+P30440 with tags, fused parts or gaps)": "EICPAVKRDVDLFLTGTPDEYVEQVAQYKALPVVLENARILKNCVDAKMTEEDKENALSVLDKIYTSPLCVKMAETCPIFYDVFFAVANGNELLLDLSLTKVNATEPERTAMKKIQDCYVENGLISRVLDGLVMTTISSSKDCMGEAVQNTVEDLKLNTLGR", "assay": "Competitive fluorescence-quenching assay, Fel d 1", "assay_type": "binding, cat", "settings": "100 μM ligand", "procedure": "as §1, §2, §3"}, "Can f 1": {"biological_target": "T4, Can f 1 (Canis lupus familiaris, UniProt O18873)", "T4 construct": "made in house; host or cells: E. coli Rosetta-gami 2(DE3)", "assay": "Competitive fluorescence-quenching assay, Can f 1", "assay_type": "binding, dog", "settings": "for inhibition at 50 µM: read-out: Mean fluorescence inhibition", "procedure": "as §1, §2, §3"}, "human LCN1": {"biological_target": "T5, human LCN1 (Homo sapiens, UniProt P31025)", "T5 construct": "made in house; host or cells: E. coli Rosetta-gami 2(DE3)", "assay": "Competitive fluorescence-quenching assay, LCN1", "assay_type": "binding", "procedure": "as §1, §2, §3"}, "[1]": {"settings": "5 μM Can f 6-1-NPN complex, 100 μM ligand, high standard error"}, "[2]": {"settings": "5 μM Fel d 4-1-NPN complex, 100 μM ligand"}, "[3]": {"settings": "5 μM LCN1-1,8-ANS complex, 50 μM ligand, n = 2"}, "[4]": {"settings": "5 μM Can f 1-1,8-ANS complex, 50 μM ligand, n = 2"}}, "note": "“And” between values parts separate entries of the source, which are not always exact repeats. Identical values can stand only once. Like-named read-outs stand apart in the source and are kept apart here."}
{"compound": "CC(C)=CCCC(C)=CC#N", "note": "[Geranyl nitrile, geranyl nitrile]", "values": [{"measurement": "Mean fluorescence inhibition", "setting": "Ory c 2", "value": 91.2, "unit": "%"}, {"measurement": "Mean fluorescence inhibition", "setting": "Cav p 1.0201", "value": 89.1, "unit": "%"}, {"measurement": "Mean fluorescence inhibition", "setting": "Cav p 1.0101", "value": 57.4, "unit": "%"}]}
{"compound": "COc1nccnc1CC(C)C", "note": "[IBMP, 2-isobutyl-3-methoxypyrazine]", "values": [{"measurement": "Ki", "setting": "Can f 6", "value": 49.6, "unit": "µM"}, {"measurement": "inhibition at 100 µM", "setting": "Can f 6; [1]", "value": 118, "unit": "%"}, {"measurement": "Ki", "setting": "Fel d 4; 5 μM Fel d 4, fluorochrome 1-NPN, to be interpreted with caution, imprecise Ki values, read-out: Ligand inhibition constant Ki", "value": 39.2, "unit": "µM"}, {"measurement": "inhibition at 100 µM", "setting": "Fel d 4; [2]", "value": 96.8, "unit": "%"}]}
{"compound": "CCCCCCCCN", "note": "[Octanamine, octanamine]", "values": [{"measurement": "Mean fluorescence inhibition", "setting": "Ory c 3", "value": 54.7, "unit": "%"}, {"measurement": "Mean fluorescence inhibition", "setting": "Fel d 1; 5 μM Fel d 1 + 1,8-ANS complex", "value": 37.7, "unit": "%"}, {"measurement": "Mean fluorescence inhibition", "setting": "Fel d 1; 5 μM Fel d 1 + 1-NPN complex", "value": 81.1, "unit": "%"}, {"measurement": "Ki", "setting": "Can f 6", "value": 273, "unit": "µM"}, {"measurement": "Mean fluorescence inhibition", "setting": "Can f 6; [1]", "value": 148.7, "unit": "%"}, {"measurement": "Mean fluorescence inhibition", "setting": "Fel d 4; [2]", "value": 94.9, "unit": "%"}]}
{"compound": "CCCCCCCCCCCCCCC(=O)O", "note": "[Pentadecanoic acid, pentadecanoic acid]", "values": [{"measurement": "inhibition at 50 µM", "setting": "Can f 1", "value": 41.4, "unit": "%"}, {"measurement": "inhibition at 50 µM", "setting": "human LCN1; [3]", "value": 88.7, "unit": "%"}]}
{"compound": "CCCCCCCCCCCCCCCO", "note": "[Pentadecanol, pentadecanol]", "values": [{"measurement": "Mean fluorescence inhibition", "setting": "Ory c 2", "value": 20.8, "unit": "%"}, {"measurement": "Mean fluorescence inhibition", "setting": "Cav p 1.0201", "value": 94.5, "unit": "%"}, {"measurement": "Mean fluorescence inhibition", "setting": "Cav p 1.0101", "value": 51.3, "unit": "%"}]}
{"compound": "CC1=C(/C=C/C(C)=C/C=C/C(C)=C/CO)C(C)(C)CCC1", "note": "[Retinol, retinol]", "values": [{"measurement": "inhibition at 50 µM", "setting": "Can f 1; [4]", "value": 49, "unit": "%"}, {"measurement": "inhibition at 50 µM", "setting": "human LCN1; [3]", "value": 84.3, "unit": "%"}]}
{"compound": "C[C@]12CC[C@H]3[C@@H](CCC4=CC(=O)CC[C@@]43C)[C@@H]1CC[C@@H]2O", "note": "[Testosterone, testosterone]", "values": [{"measurement": "Mean fluorescence inhibition", "setting": "Cav p 1.0201", "value": "not observed"}, {"measurement": "Mean fluorescence inhibition", "setting": "Cav p 1.0101", "value": "not observed"}, {"measurement": "inhibition at 100 µM", "setting": "Can f 6", "value": 43.7, "unit": "%"}, {"measurement": "inhibition at 100 µM", "setting": "Fel d 4", "value": 92.2, "unit": "%"}]}
{"compound": "CCCCCCCCCCCCCC(=O)O", "note": "[Tetradecanoic acid, tetradecanoic acid]", "values": [{"measurement": "Ki", "setting": "Can f 1; 5 μM Can f 1, fluorochrome 1,8-ANS, read-out: Ligand inhibition constant Ki", "value": 7.4, "unit": "µM"}, {"measurement": "inhibition at 50 µM", "setting": "Can f 1", "value": 60.8, "unit": "%"}, {"measurement": "Ki", "setting": "human LCN1; 5 μM LCN1, fluorochrome 1,8-ANS, read-out: Ligand inhibition constant Ki", "value": 1.8, "unit": "µM"}, {"measurement": "inhibition at 50 µM", "setting": "human LCN1; [3]", "value": 91.9, "unit": "%"}]}
{"compound": "CCCCCCCCCCCCCCO", "note": "[Tetradecanol, tetradecanol]", "values": [{"measurement": "Mean fluorescence inhibition", "setting": "Ory c 3", "value": 92.9, "unit": "%"}, {"measurement": "Mean fluorescence inhibition", "setting": "Ory c 2", "value": 55.4, "unit": "%"}, {"measurement": "Mean fluorescence inhibition", "setting": "Fel d 1; 5 μM Fel d 1 + 1,8-ANS complex", "value": 0.0, "unit": "%"}, {"measurement": "Mean fluorescence inhibition", "setting": "Cav p 1.0201", "value": 97.9, "unit": "%"}, {"measurement": "Mean fluorescence inhibition", "setting": "Cav p 1.0101", "value": 82.4, "unit": "%"}]}
{"compound": "CC(C)CCC[C@@H](C)[C@H]1CC[C@H]2[C@@H]3CC=C4C[C@@H](O)CC[C@]4(C)[C@H]3CC[C@]12C", "note": "[cholesterol]", "values": [{"measurement": "Mean fluorescence inhibition", "setting": "Cav p 1.0201", "value": "not observed"}, {"measurement": "Mean fluorescence inhibition", "setting": "Cav p 1.0101", "value": "not observed"}]}
{"compound": "Lipopolysaccharide", "values": [{"measurement": "Mean fluorescence inhibition", "setting": "Can f 1; [4]", "value": 57.4, "unit": "%"}, {"measurement": "Mean fluorescence inhibition", "setting": "human LCN1; [3]", "value": "81% and 81.2%"}]}
{"compound": "monophosphoryl lipid A [MPLA]", "values": [{"measurement": "Mean fluorescence inhibition", "setting": "Ory c 3", "value": "more than half"}, {"measurement": "Mean fluorescence inhibition", "setting": "Cav p 1.0201", "value": "more than half"}, {"measurement": "Mean fluorescence inhibition", "setting": "Cav p 1.0101", "value": "more than half"}]}
